# From patent EP1273297A1, “Vitamin E for the treatment of diseases in which the binding of the transcription factor NF-KB and/or AP-1 to promoter target sites has a beneficial effect (eg AIDS, cardiac infarction)” (Deutsches Krebsforschungszentrum Stiftung des öffentlichen …, priority 2001, dated 2003)
# Experiments:
# Jurkat J-27 T cells = test: AICD of Jurkat J-27 T cells, apoptotic nuclei by DNA fragmentation; assay type: cell-based; conditions: J-27 cells
# Protocol: J-27 T cells were induced either with PMA (10 ng/ml) Sigma (St. Louis, MO, USA) and ionomycin (0.5 µM), Calbiochem (Bad Soden/Ts, Germany) or with plate bound α-CD3 (OKT3, 50 µg/ml) for 24 h in the presence of vitamin E or equal amount of the vitamin E solvent ethanol. Apoptotic nuclei were measured by determination of DNA fragmentation (Dhein et al., Nature 373 (1995), 438).
# J-27 cells were stimulated in the absence or presence of CD95-Fc (50 µg/ml) or NOKI (50 µg/ml). BD-Pharmingen (Heidelberg, Germany), for 24 h.
# (§1) To further investigate the molecular mechanism by which vitamin E attenuates AICD, several Jurkat T cell sub-clones susceptible to T-cell-receptor (TCR)-mediated-activation-induced apoptosis were selected. Data from one of the representative clones, clone 27 (J-27) is presented here. Activation of T cells through the T cell receptor can be mimicked by stimulation with the phorbol ester (PMA) and calcium ionophores (ionomycin). […] Therefore, it is unlikely that vitamin E directly interferes with signals downstream of the CD95 receptor. […] Thus, vitamin E may reduce CD95L expression at the transcriptional level and, therefore, attenuate AICD in J-27 cells. Experimental details are given in the legend to Figure 2.
# NF-Y = test: EMSA control, constitutive transcription factor, NF-Y binding oligonucleotide; assay type: cell-based; conditions: J-27 nuclear extracts, 50 µM vitamin E (Fig. 3A)
# Protocol: (§2) Nuclear extracts were prepared from J-27 T cells either non-induced (-) or induced (+) for 2 h by PMA (10 ng/ml) and ionomycin (0.5 µM) in the absence (-) or presence (+) of 50 µM vitamin E (VE) (added 1 h before induction). The inducible complex corresponding to NF-κB and AP-1 were indicated. A NF-Y binding oligonucleotide 5'[…]-3' was used for equal loading of nuclear extracts.
# It was investigated whether vitamin E affects NF-KB and AP-1 binding to the CD95L promoter target sites. Nuclear extracts were prepared from J-27 T cells stimulated in the presence or absence of vitamin E. The NF-κB and AP-1 binding sites contained in the CD95L promoter were used as probes in an electrophoretic-mobility-shift-assay (EMSA). Stimulation of T cell with PMA and ionomycin induced binding of nuclear factors to the NF-κB and AP-1 sites of the CD95L promoter (Fig. 3A). These inducible binding complexes were either reduced or supershifted in the presence of antibodies against the subunits p50 and p65 of NF-κB or antibodies against the AP-1 family members Jun and Fos (Fig. 3B). […] As a control, the constitutive transcription factor […] was not affected by vitamin E (Fig. 3A). Experimental details are given in the legend to Figure 3.
# NF-κB = test: EMSA, nuclear extracts of J-27 T cells, binding to CD95L promoter NF-κB sites; assay type: cell-based; conditions: J-27 nuclear extracts, PMA/ionomycin 2 h, 50 µM vitamin E added 1 h before induction (Fig. 3A)
# Protocol: (§3) (A)^32P-labeled oligonucleotides containing the CD95L NF-κB (at the promoter -530 and -50 region) (Li-Weber et al., Eur. J. Immunol. 30 (2000), 661) and AP-1 (at the promoter +90 region) (Eichhorst et al., Mol. Cell. Biol. 20 (2000), 7826) binding sequences were analyzed by EMSA as described (Li-Weber et al., (2000). The EMSA probes had the following sequences: • CD95L NF-κB at-530: 5'-[…]-3' • CD95L NF-κB at-50: 5'-[…]-3' • CD95L AP-1 at +90: 5'-[…]-3'
# as §2
# (§4) It was investigated whether vitamin E affects NF-KB and AP-1 binding to the CD95L promoter target sites. Nuclear extracts were prepared from J-27 T cells stimulated in the presence or absence of vitamin E. The NF-κB and AP-1 binding sites contained in the CD95L promoter were used as probes in an electrophoretic-mobility-shift-assay (EMSA). Stimulation of T cell with PMA and ionomycin induced binding of nuclear factors to the NF-κB and AP-1 sites of the CD95L promoter (Fig. 3A). […]
# CD95L mRNA = CD95L mRNA levels by RT-PCR in day 6 T cells stimulated with plate bound α-CD3; assay type: cell-based, human; conditions: 25 µM vitamin E 1 h, then α-CD3 12 h (Fig. 1B)
# Protocol: The day 6 T cells were cultured in the absence or presence of 25 µM vitamin E for 1 h and then stimulated for 12 h with plate bound α-CD3. The mRNA was analyzed by RT-PCR using primers specific for CD95L (Eichhorst et al., Mol. Cell. Biol. 20 (2000), 7826) . For controls, primers for IFNγ and β-actin were used. The primers had the following sequences: • CD95L: sense-5'-[…]-3' antisense-5'[…]-3' • IFN-γ: sense-5'[…]-3' antisense-5'[…]-3' • human β-actin: sense-5'[…]-3' antisense-5'[…]-3'
# (§5) Since activation-induced-cell-death (AICD) is a major cause of T cell depletion in AIDS and since supplementation of vitamin E is shown to increase T cell numbers, it was investigated whether vitamin E could protect from T cell depletion by AICD. To analyze the effect of vitamin E on T cell death, freshly isolated peripheral blood T cells were prestimulated for 6 days (referred to as day 6 cells) and subsequently restimulated via the TCR by plate-bound α-CD3 antibodies. […] CD95 (APO-1/Fas) and its ligand (CD95L) are known to play a major role in AICD of T cells. […] The concentration of vitamin E in plasma from healthy individuals normally ranges from 12-35 µM. Thus, vitamin E at physiological concentrations may attenuate AICD. Indeed, depending on the blood donors, vitamin E reduced AICD by 20-50%. […]
# [1] = tested on: peripheral blood lymphocytes of HIV positive individuals; test: AICD of peripheral blood lymphocytes of HIV positive individuals stimulated with plate bound α-CD3; assay type: cell-based, human
# Protocol: Peripheral blood lymphocytes from HIV positive individuals (n = 33 Patients) and uninfected donors (11 Donors) were stimulated with plate bound (α-CD3 (50 µg/ml) for 48 h. Apoptosis was assessed by a drop in the forward to side scatter profile of apoptotic in comparison to living cells. The mean difference between patients and uninfected individuals is -7.23. 95% confidence interval is -13.7, -2.12.
# Freshly isolated blood lymphocytes from 31 HIV positive individuals were stimulated with plate bound α-CD3 in the absence or presence of either 50 µg/ml CD95-Fc or 25 µM vitamin E (VE) (added 1 h before stimulation). IgG-1 (50 µg/ml), Sigma (St. Louis, MO, USA) was used as control. Cell death was assessed after 48 h stimulation.
# To determine if vitamin E could reduce depletion of T cells from HIV positive individuals next the effects of vitamin E on AICD in peripheral blood lymphocytes of such individuals were analyzed. […] As opposed to lymphocytes from healthy donors lymphocytes isolated from HIV-infected individuals were more susceptible to apoptosis (Fig. 6A). […] Experimental details are given in the legend to Figure 6.
# IFNγ mRNA = IFNγ mRNA by RT-PCR (control) in J-27 T cells stimulated by PMA and ionomycin; assay type: cell-based; conditions: J-27 cells, 50 µM vitamin E, PMA/ionomycin (Fig. 2E)
# Protocol: J-27 T cells were cultured in the absence or presence of 50 µM vitamin E for 1 h and then stimulated by PMA (10 ng/ml) and ionomycin (0.5 µM) for the indicated times. CD95L mRNA expression was analyzed by RT-PCR. Primers for IFNγ and β-actin were used as controls.
# as §1
# [2] = tested on: human peripheral blood T cells; test: AICD of day 6 prestimulated peripheral blood T cells restimulated with plate-bound α-CD3, cell death by propidium iodide uptake; assay type: cell-based; conditions: depending on the blood donors; vitamin E at physiological concentrations
# Protocol: Freshly isolated blood T cells were stimulated by PHA and cultured in the presence of IL-2 for 6 days as described in Klas et al., Int. Immunol. 5 (1993), 625. The day 6 prestimulated T cells were then treated without or with 25 µM vitamin E (VE) Sigma (St. Louis, MO, USA) for 1 h and subsequently cultured in 96-well-flat-bottomed plates coated with α-CD3 (OKT3, 50 µg/ml; (DKFZ, Prof. Krammer) in the absence or presence of CD95-Fc (50 µg/ml; (DKFZ, Prof. Krammer, Dhein et al., Nature 373 (1995), 438) or control human (50 µg/ml) IgG-1. Cell death was assessed after a further 48 h by propidium iodide (PI) uptake (Klas et al., Int. Immunol. 5 (1993), 625.
# as §5, with “AICD.” for “AICD. Indeed, depending on the blood donors, vitamin E reduced AICD by 20-50%.”
# AP-1 = test: EMSA, nuclear extracts of J-27 T cells, binding to CD95L promoter AP-1 site; assay type: cell-based; conditions: J-27 nuclear extracts, PMA/ionomycin 2 h, 50 µM vitamin E added 1 h before induction (Fig. 3A)
# Protocol: as §3, §2, §4
structure (smiles),measurement,setting,value
"Cc1c(C)c2c(c(C)c1O)CC[C@@](C)(CCC[C@H](C)CCC[C@H](C)CCCC(C)C)O2 [vitamin E, α-tocopherol]",PMA/ionomycin-induced cell death,"Jurkat J-27 T cells; PMA 10 ng/ml and ionomycin 0.5 µM, 24 h (Fig. 2A, B)",significantly reduced
same,α-CD3-induced cell death,"Jurkat J-27 T cells; plate bound α-CD3 (OKT3, 50 µg/ml) 24 h (Fig. 2A, B)",significantly reduced
same,NF-Y binding (constitutive loading control),NF-Y,not affected
same,binding of NF-κB to its binding sites of the CD95L promoter (-530 and -50 region),NF-κB,prevented binding
same,increase of CD95L mRNA expression upon restimulation,CD95L mRNA,blocked
same,AICD,"[1]; 31 HIV positive individuals, α-CD3, 25 µM vitamin E added 1 h before stimulation, 48 h (Fig. 6B)",greatly reduced
same,reduction of AICD compared with that obtained by CD95-Fc,"[1]; HIV positive individuals, 25 µM vitamin E vs 50 µg/ml CD95-Fc (Fig. 6B)",even more pronounced
same,levels of IFNγ mRNA,IFNγ mRNA,not significantly changed
same,reduced AICD,[2],20-50%
same,binding of AP-1 to its binding site of the CD95L promoter (+90 region),AP-1,prevented binding
